The series in a line: Solubility of Zn salts in organic compounds. The note with it: mixed with organic monomers listed per example in b131-b162 (glycol di(meth)acrylates, trimethylolpropane triacrylate etc.). From the text:
The organic compounds tested with the products of each of the preceding examples were as follows: […]

The text below walks through data of patent US6399672B1, “Oil soluble metal-containing compounds, compositions and methods” (Sartomer Technologies Co., Inc., priority 1999, dated 2002).

Turning to zinc dimethacrylate, the “solubility in organic compounds” value was “insoluble”.
